From US9447122B2, “Arginase inhibitors and methods of use thereof” (AstraZeneca AB, priority 2010, dated 2016)
Read-outs that look alike come from different tables or passages of the source.

Columns and labels:
[1] = biological target: T1, human arginase II (Homo sapiens, UniProt P78540); assay: Arginase inhibition, QuantiChrom colorimetric urea assay, IC50 converted to Ki; assay type: biochemical; conditions: Table 2
T1 sequence (P78540 23-354): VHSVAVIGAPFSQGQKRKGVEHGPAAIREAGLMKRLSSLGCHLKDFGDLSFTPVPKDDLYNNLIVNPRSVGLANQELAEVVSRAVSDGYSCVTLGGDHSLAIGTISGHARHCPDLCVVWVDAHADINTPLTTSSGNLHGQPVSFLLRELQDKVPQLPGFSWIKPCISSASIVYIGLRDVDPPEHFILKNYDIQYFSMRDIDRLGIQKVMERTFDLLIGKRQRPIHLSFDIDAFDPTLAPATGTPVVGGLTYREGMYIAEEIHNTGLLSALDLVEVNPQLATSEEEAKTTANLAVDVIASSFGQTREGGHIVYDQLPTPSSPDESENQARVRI
Method: (§1) For some compounds, their inhibitory potency at pH 7.5 was compared to the inhibitory potency of ABH at pH 7.5.
(§2) Quantitative determination of arginase activity was performed in a 96-well format by a colorimetric method using the QuantiChrom™ Arginase Assay Kit available from BioAssay Systems (Hayward, Calif., Catalog No. DARG-200) according to the manufacturer's protocol. Modifications were made to reagent quantities to suit the assaying of a highly purified sample.
(§3) The intensity of the color was directly proportional to the arginase activity in the sample.
(§4) The rate of urea production was measured in the presence of twelve different concentrations of each potential inhibitor compound. In a typical assay, seven different compounds were tested relative to a control inhibitor (e.g. ABH) against one enzyme (either human ArgI or human ArgII) at a particular pH (either 9.5 or 7.5). The pH of the solution was controlled using an appropriate pH buffering compound at 60 mM concentrations; for example, 60 mM glycine (pH 9.5) or 60 mM HEPES (pH 7.5). The half maximal inhibitory concentration (IC50) was determined by constructing a dose-response curve.

[2] = biological target: T2, human arginase I (Homo sapiens, UniProt P05089); assay: as above; assay type: biochemical; conditions: Table 2
T2 sequence (P05089 1-322): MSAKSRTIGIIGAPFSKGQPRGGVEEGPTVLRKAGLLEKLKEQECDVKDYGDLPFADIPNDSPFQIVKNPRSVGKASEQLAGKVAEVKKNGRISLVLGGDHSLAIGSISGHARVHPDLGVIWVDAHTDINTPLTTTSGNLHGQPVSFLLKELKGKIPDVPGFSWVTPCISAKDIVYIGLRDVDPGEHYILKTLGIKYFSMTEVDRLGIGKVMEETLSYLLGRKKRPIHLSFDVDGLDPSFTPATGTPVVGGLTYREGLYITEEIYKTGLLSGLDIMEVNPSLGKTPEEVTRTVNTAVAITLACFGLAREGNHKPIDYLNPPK
Method: as §1, §2, §3, §4

[3] = tested on: animal model of multiple sclerosis (experimental autoimmune encephalomyelitis); conditions: cited from earlier work
[4] = tested on: live male rabbits; conditions: cited from earlier work
[5] = tested on: female rabbits; conditions: cited from earlier work
[6] = tested on: Arg I and/or Arg II; assay: pH effect: inhibitory potency at pH 7.5 compared with pH 9.5; assay type: biochemical, human
Method: as §1
as §4, with “curve. As IC50 values are dependent upon the measurement conditions, the IC50 values were converted to the inhibitor binding affinity (K1) using the Cheng-Prusoff equation and the affinity constant (Km) of L-arginine which was estimated with the same activity assay (see, e.g., Cheng et al., 1973, Biochem. Pharmacol. 22:3099-108).” for “curve.”

[7] = tested on: rabbit and human penile corpus cavernosum; conditions: rabbit and human tissue; cited from earlier work
[8] = tested on: corpus cavernosum of the diabetic person; conditions: ex vivo; cited from earlier work
[9] = tested on: opossum internal anal sphincter muscle; conditions: cited from earlier work
[10] = biological target: T3, arginase (Homo sapiens, UniProt P78540); conditions: literature; cited from earlier work
T3 sequence (P78540 23-354): T1 sequence (P78540 23-354)

[11] = tested on: guinea pigs; conditions: nebulizer treatment, allergic asthma model; cited from earlier work
[12] = tested on: humans; conditions: subcutaneous administration; cited from earlier work
[13] = tested on: prostate cancer; conditions: cited from earlier work
[14] = tested on: breast cancer; conditions: cited from earlier work

Row | Ki ([1]; pH 7.5, read-out: human arginase II pH 7.5, Ki assigned value) | Ki ([1]; pH 9.5, read-out: human arginase II pH 9.5, Ki assigned value) | Ki ([2]; pH 7.5, read-out: human arginase I pH 7.5, Ki assigned value) | Ki ([2]; pH 9.5, read-out: human arginase I pH 9.5, Ki assigned value) | SMILES | disease score [3] | erectile response [4] | engorgement response in the genitalia [5] | increased potency for at least one isozyme ([6]; Table 2, pH 7.5 vs pH 9.5) | potency at pH 7.5 as compared to pH 9.5, arginases ([6]; both or at least one of the arginases) | NO-dependent relaxation of corpus cavernosum [7] | NO biosynthesis [8] | relaxation of internal anal sphincter muscle [9] | inhibitory potency at pH 7.5 vs pH 9.5 [10] | airway hyperresponsiveness [11] | vasodilation and circulation [12] | tumor immunotherapy [13] | cell proliferation and apoptosis [14]
1 | 101 to 250 nM | 11 to 50 nM | 51 to 100 nM | 11 to 50 nM | N[C@@H](CCCCB(O)O)C(=O)O [ABH, 2(S)-amino-6-boronohexanoic acid] | improves the disease score | enhances the erectile response | enhances the engorgement response | no ^b | decrease in inhibitory potency | enhances the NO-dependent relaxation | restores NO biosynthesis | relax this muscle | much lower at pH 7.5 than at pH 9.5 | prevents airway hyperresponsiveness |  |  | 
2 |  |  |  |  | N[C@@H](CSCCB(O)O)C(=O)O [BEC, S-(2-boronoethyl)-L-cysteine] |  |  |  |  |  |  |  |  | much lower at pH 7.5 than at pH 9.5 |  | vasodilatory and enhances circulation |  | 
3 |  |  |  |  | N=C(NO)NCCC[C@H](N)C(=O)O [N-hydroxy-L-arginine, N^Ω-hydroxy-L-arginine] |  |  |  |  |  |  |  |  |  |  |  | facilitates tumor immunotherapy | inhibits cell proliferation and induces apoptosis
